Here are results for 16 compounds from patent publication US20260315431A1, “NANOMATERIAL ENCAPSULATED BIOFILM INHIBITORS FOR DENTAL CARIES TREATMENT” (THE UAB RESEARCH FOUNDATION, priority 2023, published 2026).

The structures appear in SMILES notation. In brackets after ≈: the same amount, converted by molar mass. Where two headings read alike, the source gives them in different places. A value given as a limit tells only on which side of the number the result lay.

The test system of data set [1] is S. mutans UA159. As to the kind of experiment: Biofilm inhibition, S. mutans UA159 (crystal violet, OD562). The settings on record: for IC50 / inhibition at 50 µM: Streptococcus mutans; for inhibition at 50 µM: UA159, 50 μM; for S. mutans biofilm inhibition: 50 μM. It counts as cell-based, Streptococcus mutans. How it is done: (§1) The bacterial strains, S. mutans UA159, S. gordonii DL1, and S. sanguinis SK36 were inoculated statically at 37° C. under 5% CO2 in Todd Hewitt Broth (THB) for 24 h. The cultures were then diluted with fresh THB (1:5) and reinoculated until optical density at 470 nm (OD470) reached 1. The optical density was read using BioTek 800TS microplate reader at 470 nm for bacterial growth and 562 nm for biofilm stained with crystal violet. Data was plotted in Graphpad Prism9.
Biofilm inhibition assays. Biofilm inhibition assays were performed in polystyrene microtiter 96 well plates. Stock solutions were prepared in chemically defined medium (CDM, JRH Biosciences, Lenexa, KS) with 2% sucrose, 1% bacteria cultures and various concentrations of the small molecule inhibitors to examine their activity against biofilm formation as described^69, 70. These stocks were assayed in 96 well plates in triplicate and incubated at 37° C. and 5% CO2 for 16 h. After reading optical density for bacterial growth, the plate was gently washed with water, dried, and stained with crystal violet, and then gently rinsed again with deionized water leaving the stained biofilm at the bottoms of the wells. Biofilms was dissolved in 200 μL of 30% acetic acid and absorbance at 562 nm was used read to determine biofilm biomass. Each assay was carried out at least in triplicate. Biofilm inhibitory concentration (IC50) of the compounds was determined by serial dilutions.
(§2) All bacterial strains (S. mutans UA159, S. gordonii DL1, and S. sanguinis SK36) were inoculated statically at 37° C. under 5% CO2 environment in Todd Hewitt Broth (THB) for 24 h^[61]. The cultures were then diluted with fresh THB (1:5) and reinoculated until the optical density at 470 nm reaches 1. The optical density was read using BioTek 800 TS absorbance reader at 470 nm for bacterial growth and 562 nm for biofilm stained with crystal violet. Data was plotted in Prism 10.0.2.
Biofilm inhibition assays were performed in polystyrene microtiter 96-well plates. Stock solutions were prepared in chemically defined medium (CDM) with 1% sucrose, 1% bacteria cultures and various concentrations of the small molecule inhibitors to examine their activity against biofilm formation as described^[62, 63]. These stocks were assayed in 96 well plates in triplicate and incubated at 37° C. and 5% CO2 for 16 h. After reading optical density for bacterial growth, the plate was washed, dried, and stained with 0.1% crystal violet which was again rinsed well with deionized water leaving the stained biofilm at the bottoms of the wells. This biofilm was dissolved in 200 μL of 30% acetic acid and absorbance at 562 nm was read to determine amount of biofilm formation. Each assay was carried out at least in triplicate. Biofilm inhibitor concentration (IC50) of the compounds was determined by serial dilutions from 0 μM-50 μM (1% DMSO).

Data set [2] has as its system S. mutans UA159. In words: Planktonic growth, S. mutans UA159 (OD470). It counts as cell-based, Streptococcus mutans. As to conditions: for inhibition at 50 µM: Streptococcus mutans, UA159, read-out: planktonic growth inhibition of S. mutans, 50 μM. How it is done:
as §1
(§3) S. mutans, S. gordonii, and S. sanguinis growth assays. Effects of compounds on S. mutans and commensal bacterial growth were evaluated using the growth assay as described^69. S. mutans UA159, S. gordonii DL1, S. sanguinis SK36, cultures were grown for 24 h under 5% CO2 at 37° C. These cultures were then reinoculated with fresh THB (1:5) until OD470=1 when the bacteria were ready to be used. Different concentrations of the inhibitor were assayed in chemically defined media (CDM) with 1% of the bacteria, 1% sucrose and 1% DMSO in 96 well plates. The 96 well plates were incubated under 5% CO2 at 37° C. for 16 h. Growth of the bacteria was read after 16 h at OD470. Each assay was carried out at least in triplicate.
as §2
as §3, with “Effects” for “S. mutans, S. gordonii, and S. sanguinis growth assays. Effects”, “PEHA5, PEHA6, HA5 or HA6” for “compounds”, “described^[62].” for “described^69.”, “PEHA5, PEHA6, HA5 or HA6” for “inhibitor”, “CDM” for “chemically defined media (CDM)”

Data set [3] is described as follows: Solubility in water containing 1% DMSO (UV spectroscopy). Format: physicochemical. The settings on record: for solubility compared with IIIC5: comparison with IIIC5 (25 μg/mL); for solubility: organic solvent or mixture, water containing 1% DMSO. How it is done: Solubility of MA1-6 and HA2-6 were determined as reported^46 (Table 1).
General considerations. ^1H-NMR and ^13C-NMR spectra were recorded on Bruker Avance Neo 400 and Avance II 700 spectrometers using TMS or appropriate solvent signals as internal standard. The chemical shift values are given in parts per million (ppm) relative to the internal standard used and the coupling constants (J) are given in hertz (Hz). High resolution mass spectra (HRMS) were recorded using Waters AutoSpec-Ultima™ NT magnetic sector mass spectrometer with Electron Impact (EI) Ionization source. The mass analyzer is an electric-magnetic-electric (EBE) sector (a double focusing sector). Anhydrous solvents used for reactions were purchased in Sure-Seal™ bottles from Aldrich chemical company. Other chemical reagents were purchased from Aldrich or Fisher chemical companies and used as received. Reactions were monitored with thin layer chromatography (TLC), which was done on silica gel plates with fluorescent indicator (Silicycle, silica gel, UV254, 25 μm plates). The TLC spots were observed under UV light with the wavelengths 254 nm and 365 nm. The reaction mixtures were purified by column chromatography using Si gel (32-63 μm) from Dynamic Absorbent, Inc. Melting points were determined on a Mel-Temp II melting point apparatus and are uncorrected. All tested compounds have ≥95% purity as determined by HPLC. HPLC traces were obtained using Shimadzu SPD-M20A. Solubility of compounds were determined by UV-spectroscopy method using Agilent Cary 60 UV-Vis spectrophotometer. HPLC analysis of the final compounds were conducted using Kinetex 5 μm C18 100 Å, LC Column 150×4.6 mm, compound=3 mM, 20 μL injection, solvent: mobile phase buffer, Conditions: 60% MeCN/40% H2O/0.1% Formic acid (isocratic), HPLC method 0-10 min, Signals were analyzed using a 254 nm UV detector. A chromatogram of Mobile Phase Buffer (20 μL) was obtained for comparison.

For data set [4] the following is noted: water, 1% dmso; cited from earlier work.
Setting [5] is: S. mutans UA159 biofilm, read-out: Biofilm IC50.

Usually IC50 stands for the concentration at which inhibition is half-maximal. With `O=C(C=Cc1ccccc1)c1ccccc1O` [Compound 3a, 1-(2-Hydroxyphenyl)-3-phenyl-2-propen-1-one], the IC50 in the data set with S. mutans UA159 [1] (UA159, read-out: Biofilm IC50) is over 300 µM.

In the case of `COc1ccc(C=CC(=O)c2ccccc2O)cc1` [Compound 3b, 1-(2-Hydroxyphenyl)-3-(4′-methoxyphenyl)-2-propen-1-one], in the data set with S. mutans UA159 [1] (UA159, read-out: Biofilm IC50), the IC50 is over 300 µM.

`COc1ccc(C=CC(=O)c2ccccc2O)cc1OC` [Compound 3c, 3-(3′,4′-Dimethoxyphenyl)-1-(2-hydroxyphenyl) prop-2-en-1-one]: in the data set on S. mutans UA159 [1] (UA159, read-out: Biofilm IC50), the IC50 was over 300 µM.

With `COc1cc(C=CC(=O)c2ccccc2O)cc(OC)c1` [Compound 3d, 3-(3′,5′-Dimethoxyphenyl)-1-(2-hydroxyphenyl) prop-2-en-1-one], in the data set on S. mutans UA159 [1] (UA159, read-out: Biofilm IC50), the IC50 was over 300 µM.

Turning to `COc1cc(OC)c(OC)cc1C=CC(=O)c1ccccc1O` [Compound 3e, 1-(2-Hydroxyphenyl)-3-(2′,4′,5′-trimethoxyphenyl) prop-2-en-1-one], in the data set with S. mutans UA159 [1] (UA159, read-out: Biofilm IC50), the IC50 was over 300 µM.

As usually defined, the inhibition is the relative decrease from the control value, in per cent. Compound `COc1cc(C=CC(=O)c2ccccc2O)cc(OC)c1OC` [Compound 3f, 1-(2-Hydroxyphenyl)-3-(3′,4′,5′-trimethoxyphenyl) prop-2-en-1-one] showed an inhibition at 50 µM in the data set with S. mutans UA159 [1] of 40%. In the data set on S. mutans UA159 [1] (UA159, read-out: Biofilm IC50), the concentration for half-maximal inhibition (IC50) was found to be 181 µM. Moreover, the “planktonic growth of S. mutans” value in the data set on S. mutans UA159 [2] (50 μM) is on record as “no growth inhibition”.

What is called solubility is the dissolved amount per volume that the medium holds. `O=C1/C(=C/c2ccc(O)cc2)Oc2ccccc21` [HA2, 2-[(4′-Hydroxyphenyl)methylidene]-2,3-dihydro-1-benzofuran-3-one] gave an inhibition at 50 µM with S. mutans UA159 [1] of over 95%. The IC50 in the data set with S. mutans UA159 [1] (UA159, read-out: Biofilm IC50) stood at 18.8 ± 2.36 µM. Further, in data set [3], the “solubility compared with IIIC5” value is given as “lower solubility than IIIC5” and the solubility came to 18.9 µg/mL (≈ 79.5 µM). Moreover, the “planktonic growth inhibition of S. mutans” value in the data set with S. mutans UA159 [2] (50 μM) is reported as 70%. Also, in the data set with S. mutans UA159 [2], the inhibition at 50 µM is 60%.

`O=C1/C(=C/c2ccc(O)c(O)c2)Oc2ccccc21` [HA3, 2-[(3′,4′-Dihydroxyphenyl)methylidene]-2,3-dihydro-1-benzofuran-3-one]: the inhibition at 50 µM in the data set with S. mutans UA159 [1] was about 80%; with S. mutans UA159 [2] it was 40%. Moreover, the IC50 was 30.7 µM in the data set with S. mutans UA159 [1] (UA159, read-out: Biofilm IC50) and 30.7 µM with S. mutans UA159 [1] (setting [5]). The solubility in data set [3] (UV spectroscopy) is 81.6 µg/mL (≈ 321 µM).

Take `O=C1/C(=C/c2cc(O)cc(O)c2)Oc2ccccc21` [HA4, 2-[(3′,5′-Dihydroxyphenyl)methylidene]-2,3-dihydro-1-benzofuran-3-one]: the “S. mutans biofilm inhibition” value in the data set with S. mutans UA159 [1] is reported as “did not show significant biofilm inhibition”. Also, the IC50 in the data set with S. mutans UA159 [1] (UA159, read-out: Biofilm IC50) is 94.2 µM; with S. mutans UA159 [1] (setting [5]), 94.2 µM. Also, the solubility in data set [3] (UV spectroscopy) is 76.5 µg/mL (≈ 301 µM). In addition, the inhibition at 50 µM with S. mutans UA159 [2] came out at 30%.

For the compound `O=C1C(=Cc2ccccc2)Oc2ccccc21` [MA1, 2-(Phenylmethylidene)-2,3-dihydro-1-benzofuran-3-one], in the data set with S. mutans UA159 [1] (UA159, read-out: Biofilm IC50), the IC50 amounted to 33.6 ± 0.53 µM. In addition, the “solubility compared with IIIC5” value in data set [3] is on record as “lower solubility than IIIC5”. Also, the solubility in data set [3] (UV spectroscopy) was found to be 8.51 ± 2 µg/mL (≈ 38.3 µM). Also, in the data set with S. mutans UA159 [2], the inhibition at 50 µM was found to be 80%.

In the case of `COc1ccc(/C=C2\Oc3ccccc3C2=O)cc1` [MA2, 2-[(4′-Methoxyphenyl)methylidene]-2,3-dihydro-1-benzofuran-3-one], the IC50 in the data set on S. mutans UA159 [1] (UA159, read-out: Biofilm IC50) was 108 µM. The IC50 in the data set on S. mutans UA159 [1] (UA159, read-out: Biofilm IC50 (unit inferred)) is 108 µM. Moreover, in data set [3], the “solubility compared with IIIC5” value is listed as “lower solubility than IIIC5” and the solubility came to 16.2 µg/mL (≈ 64.3 µM).

With `COc1ccc(/C=C2\Oc3ccccc3C2=O)cc1OC` [MA3, 2-[(3′,4′-Dimethoxyphenyl)methylidene]-2,3-dihydro-1-benzofuran-3-one], in the data set with S. mutans UA159 [1], the “S. mutans biofilm inhibition” value is “inactive”. For the same compound, the IC50 is 49.4 µM in the data set on S. mutans UA159 [1] (UA159, read-out: Biofilm IC50) and 49.4 µM in the data set with S. mutans UA159 [1] (setting [5]). For the same compound, the solubility in data set [3] stood at 36.3 µg/mL (≈ 128 µM).

Turning to `COc1cc(/C=C2\Oc3ccccc3C2=O)cc(OC)c1` [MA4, 2-[(3′,5′-Dimethoxyphenyl)methylidene]-2,3-dihydro-1-benzofuran-3-one], the IC50 with S. mutans UA159 [1] (UA159, read-out: Biofilm IC50) is over 300 µM. Also, in data set [3], the “solubility compared with IIIC5” value is “lower solubility than IIIC5” and the solubility stood at 19 µg/mL (≈ 67.2 µM).

Regarding `COc1cc(OC)c(OC)cc1/C=C1\Oc2ccccc2C1=O` [MA5, 2-[(2′,4′,5′-Trimethoxyphenyl)methylidene]-2,3-dihydro-1-benzofuran-3-one], the values for the inhibition at 50 µM in the data set on S. mutans UA159 [1] and with S. mutans UA159 [2] were 60% and 30%, respectively. Besides, the IC50 in the data set with S. mutans UA159 [1] (UA159, read-out: Biofilm IC50) was 52.8 µM; in the data set with S. mutans UA159 [1] (setting [5]), 52.8 µM. Further, the solubility in data set [3] turned out to be 42.4 µg/mL (≈ 136 µM).

Regarding `COc1cc(/C=C2\Oc3ccccc3C2=O)cc(OC)c1OC` [MA6, 2-[(3′,4′,5′-Trimethoxyphenyl)methylidene]-2,3-dihydro-1-benzofuran-3-one], the IC50 in the data set with S. mutans UA159 [1] (UA159, read-out: Biofilm IC50) is over 300 µM. Also, the solubility in data set [3] is 44.7 µg/mL (≈ 143 µM).

On to `O=C(O)c1ccccc1O` [Salicylic acid], for which the solubility in data set [4] was 1880 ± 30 µg/mL (≈ 13600 µM).
